Test results from ChEMBL document CHEMBL5104095, “Proteolysis targeting chimera (PROTAC) in drug discovery paradigm: Recent progress and future challenges” (Eur J Med Chem, 2021).

Key:
[1] = PROTAC activity at VHL/PRC2 in human HeLa cells assessed as induction of PRC2 degradation incubated for 24 hrs by Western blot analysis; assay type: cell-based
HeLa = test: PROTAC activity at VHL/PRC2 in human HeLa cells assessed as induction of PRC2 degradation incubated for 24 hrs by Western blot analysis relative to control; assay type: cell-based
Protein cereblon-NS3 = Protein cereblon-NS3 (Hepacivirus hominis, UniProt A3EZJ3+Q96SW2); test: PROTAC activity at CRBN/NS3 of HCV assessed as induction of NS3-eGFP-2A-mCherry degradation incubated for 4 hrs by flow cytometry
[2] = target: von Hippel-Lindau disease tumor suppressor/Cyclin-dependent kinase 6 (Homo sapiens, UniProt P40337+Q00534); test: PROTAC activity at VHL/CDK6 in human MM1.S cells assessed as induction of CDK6 degradation incubated for 16 hrs by Western blot analysis; assay type: cell-based
[3] = target: von Hippel-Lindau disease tumor suppressor/Cyclin-dependent kinase 4 (Homo sapiens, UniProt P11802+P40337); test: PROTAC activity at VHL/CDK4 in human MM1.S cells assessed as induction of […] degradation incubated for 16 hrs by Western blot analysis; assay type: cell-based
[4] = target: von Hippel-Lindau disease tumor suppressor/Cyclin-dependent kinase 6 (Homo sapiens) (UniProt Q00534+P40337); test: PROTAC activity at VHL/CDK6 in human MM1.S cells assessed as induction of CDK6 degradation at 0.1 to 1 uM incubated for 16 hrs by Western blot analysis relative to control; assay type: cell-based; conditions: dose 0.1-1 µM
[5] = target: T1, Protein cereblon/Tyrosine-protein kinase BTK (Homo sapiens, UniProt Q06187+Q96SW2); test: PROTAC activity at CRBN/BTK in human MINO cells assessed as reduction in BTK level incubated for 24 hrs by Western blot analysis; assay type: cell-based
Target sequence in this assay (Q06187 whole entry): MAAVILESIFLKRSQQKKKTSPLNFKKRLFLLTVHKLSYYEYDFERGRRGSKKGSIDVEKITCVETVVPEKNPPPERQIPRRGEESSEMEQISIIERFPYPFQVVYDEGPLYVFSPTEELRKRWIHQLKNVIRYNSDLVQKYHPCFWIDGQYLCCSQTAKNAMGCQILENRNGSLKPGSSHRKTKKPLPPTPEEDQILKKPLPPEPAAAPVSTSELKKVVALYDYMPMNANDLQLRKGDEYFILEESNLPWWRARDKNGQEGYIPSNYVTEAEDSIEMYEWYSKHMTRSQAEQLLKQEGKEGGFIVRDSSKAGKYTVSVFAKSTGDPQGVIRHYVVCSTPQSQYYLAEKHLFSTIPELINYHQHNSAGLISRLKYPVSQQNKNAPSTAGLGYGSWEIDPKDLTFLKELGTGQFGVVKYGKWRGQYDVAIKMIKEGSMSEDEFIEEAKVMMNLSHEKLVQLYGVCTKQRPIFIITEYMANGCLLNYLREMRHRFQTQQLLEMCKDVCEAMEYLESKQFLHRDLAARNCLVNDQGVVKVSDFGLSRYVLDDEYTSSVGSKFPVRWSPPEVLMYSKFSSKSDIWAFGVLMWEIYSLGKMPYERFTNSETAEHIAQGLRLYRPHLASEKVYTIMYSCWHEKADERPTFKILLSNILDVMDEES
Target sequence in this assay (Q96SW2 whole entry): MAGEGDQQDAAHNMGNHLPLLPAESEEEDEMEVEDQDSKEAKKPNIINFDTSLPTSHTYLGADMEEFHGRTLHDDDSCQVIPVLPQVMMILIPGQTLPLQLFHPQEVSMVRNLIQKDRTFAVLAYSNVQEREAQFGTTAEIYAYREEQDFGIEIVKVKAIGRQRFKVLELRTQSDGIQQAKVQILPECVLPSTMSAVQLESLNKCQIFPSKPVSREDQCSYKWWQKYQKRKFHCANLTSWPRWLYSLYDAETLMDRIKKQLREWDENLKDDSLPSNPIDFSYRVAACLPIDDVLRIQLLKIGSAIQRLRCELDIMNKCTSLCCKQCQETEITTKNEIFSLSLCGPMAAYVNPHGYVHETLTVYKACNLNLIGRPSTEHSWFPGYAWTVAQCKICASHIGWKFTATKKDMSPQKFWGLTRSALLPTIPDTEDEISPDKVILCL

[6] = target: T1, Protein cereblon/Tyrosine-protein kinase BTK; test: PROTAC activity at CRBN/BTK in human MINO cells assessed as reduction in BTK level incubated for 24 hrs by Western blot analysis relative to control; assay type: cell-based
Target sequence in this assay (Q06187 2-659 limits assumed): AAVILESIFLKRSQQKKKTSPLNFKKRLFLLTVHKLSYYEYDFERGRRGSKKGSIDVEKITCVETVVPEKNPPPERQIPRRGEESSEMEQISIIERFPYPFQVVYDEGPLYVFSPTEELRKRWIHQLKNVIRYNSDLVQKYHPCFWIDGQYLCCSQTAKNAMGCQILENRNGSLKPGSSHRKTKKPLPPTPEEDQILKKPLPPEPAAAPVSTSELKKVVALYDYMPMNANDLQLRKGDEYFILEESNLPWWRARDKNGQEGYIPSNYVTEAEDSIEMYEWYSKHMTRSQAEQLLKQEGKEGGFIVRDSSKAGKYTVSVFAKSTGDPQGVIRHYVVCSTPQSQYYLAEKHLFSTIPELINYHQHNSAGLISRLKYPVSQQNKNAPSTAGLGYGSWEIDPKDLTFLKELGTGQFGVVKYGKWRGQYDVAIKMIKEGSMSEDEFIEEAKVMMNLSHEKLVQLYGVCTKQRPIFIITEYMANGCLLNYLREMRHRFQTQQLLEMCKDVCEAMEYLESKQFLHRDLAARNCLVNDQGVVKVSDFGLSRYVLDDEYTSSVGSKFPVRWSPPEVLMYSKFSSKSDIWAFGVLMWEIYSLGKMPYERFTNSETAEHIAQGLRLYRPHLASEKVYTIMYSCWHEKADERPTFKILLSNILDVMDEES
Target sequence in this assay (Q96SW2 whole entry partner): as the sequence (Q96SW2 whole entry) above

[7] = target: Protein cereblon/Tyrosine-protein kinase BTK (Homo sapiens, UniProt Q06187+Q96SW2, C481S); test: PROTAC activity at CRBN/BTK C481S mutant transfected in human HBL1 cells assessed as induction of BTK C481S degradation incubated for 36 hrs by Western blot analysis; assay type: cell-based
[8] = target: T2, von Hippel-Lindau disease tumor suppressor/Tyrosine-protein kinase ABL1/Breakpoint cluster region protein (Homo sapiens, UniProt P00519+P11274+P40337); test: PROTAC activity at VHL/BCR-Abl (unknown origin) assessed as induction of BCR-Abl degradation by cell based assay relative to control
[9] = target: T2, von Hippel-Lindau disease tumor suppressor/Tyrosine-protein kinase ABL1/Breakpoint cluster region protein; test: PROTAC activity at VHL/BCR-Abl (unknown origin) assessed as induction of BCR-Abl degradation by cell based assay
[10] = target: von Hippel-Lindau disease tumor suppressor/Focal adhesion kinase 1 (Homo sapiens) (UniProt Q05397+P40337); test: PROTAC activity at VHL/FAK in human PC-3 cells assessed as induction of FAK degradation incubated for 24 hrs by immunoblot analysis relative to control; assay type: cell-based
[11] = target: von Hippel-Lindau disease tumor suppressor/Focal adhesion kinase 1 (Homo sapiens, UniProt P40337+Q05397); test: PROTAC activity at VHL/FAK in human PC-3 cells assessed as induction of FAK degradation incubated for 24 hrs by immunoblot analysis; assay type: cell-based
[12] = target: BRD4/E3 ubiquitin-protein ligase Mdm2 (Homo sapiens) (UniProt Q00987+O60885); test: PROTAC activity at MDM2/BRD4 in human HCT-116 cells assessed as induction of BRD4 degradation incubated for 24 hrs by immunoblot analysis relative to control; assay type: cell-based
[13] = target: BRD4/E3 ubiquitin-protein ligase Mdm2 (Homo sapiens, UniProt O60885+Q00987); test: PROTAC activity at MDM2/BRD4 in human HCT-116 cells assessed as induction of BRD4 degradation incubated for 24 hrs by immunoblot analysis; assay type: cell-based
[14] = target: T3, Protein cereblon/Retinal rod rhodopsin-sensitive cGMP 3',5'-cyclic phosphodiesterase subunit delta (Homo sapiens, UniProt O43924+Q96SW2); test: PROTAC activity at CRBN/PDEdelta in human PancTu-I assessed as induction of PDEdelta degradation incubated for 24 hrs by immunoblot analysis relative to control; assay type: cell-based
[15] = target: T3, Protein cereblon/Retinal rod rhodopsin-sensitive cGMP 3',5'-cyclic phosphodiesterase subunit delta; test: PROTAC activity at CRBN/PDEdelta in human PancTu-I assessed as induction of PDEdelta degradation incubated for 24 hrs by immunoblot analysis; assay type: cell-based

Chain of BRD4/E3 ubiquitin-protein ligase Mdm2 (Q00987 whole entry, looked up, other chains not shown): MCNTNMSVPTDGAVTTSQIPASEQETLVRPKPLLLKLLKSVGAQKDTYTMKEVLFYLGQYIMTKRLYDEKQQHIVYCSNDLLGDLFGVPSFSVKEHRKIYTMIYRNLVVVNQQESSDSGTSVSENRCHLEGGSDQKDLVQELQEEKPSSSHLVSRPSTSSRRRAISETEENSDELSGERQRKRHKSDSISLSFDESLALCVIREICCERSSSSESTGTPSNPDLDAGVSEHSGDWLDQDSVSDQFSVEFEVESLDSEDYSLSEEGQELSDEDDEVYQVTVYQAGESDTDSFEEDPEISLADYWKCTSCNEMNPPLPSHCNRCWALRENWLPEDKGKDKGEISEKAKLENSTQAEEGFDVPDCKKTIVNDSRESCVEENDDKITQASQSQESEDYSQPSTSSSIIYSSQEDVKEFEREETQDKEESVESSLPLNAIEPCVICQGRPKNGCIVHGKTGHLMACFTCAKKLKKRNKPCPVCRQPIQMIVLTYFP
Chain of BRD4/E3 ubiquitin-protein ligase Mdm2 (Homo sapiens) (Q00987 whole entry, looked up, other chains not shown): as above
Chain of von Hippel-Lindau disease tumor suppressor/Cyclin-dependent kinase 6 (Q00534 whole entry): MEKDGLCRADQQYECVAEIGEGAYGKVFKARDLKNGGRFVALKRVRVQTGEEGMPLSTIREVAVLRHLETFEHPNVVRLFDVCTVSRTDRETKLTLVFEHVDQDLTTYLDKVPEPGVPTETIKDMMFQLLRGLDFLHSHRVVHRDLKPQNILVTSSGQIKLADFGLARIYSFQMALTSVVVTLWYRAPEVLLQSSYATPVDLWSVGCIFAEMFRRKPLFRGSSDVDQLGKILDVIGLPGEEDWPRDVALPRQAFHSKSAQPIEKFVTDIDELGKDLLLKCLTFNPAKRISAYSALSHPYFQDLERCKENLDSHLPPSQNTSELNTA
Chain of von Hippel-Lindau disease tumor suppressor/Cyclin-dependent kinase 6 (P40337 whole entry): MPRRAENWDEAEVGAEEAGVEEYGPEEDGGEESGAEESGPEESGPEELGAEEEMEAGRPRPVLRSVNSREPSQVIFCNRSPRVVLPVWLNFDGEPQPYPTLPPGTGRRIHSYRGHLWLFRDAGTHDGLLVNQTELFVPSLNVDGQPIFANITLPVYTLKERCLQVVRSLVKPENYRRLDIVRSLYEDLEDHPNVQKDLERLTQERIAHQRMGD
Chain of von Hippel-Lindau disease tumor suppressor/Cyclin-dependent kinase 6 (Homo sapiens) (P40337 whole entry, looked up): as the sequence (P40337 whole entry) above
Chain of von Hippel-Lindau disease tumor suppressor/Cyclin-dependent kinase 6 (Homo sapiens) (Q00534 whole entry, looked up): as the sequence (Q00534 whole entry) above
Chain of von Hippel-Lindau disease tumor suppressor/Cyclin-dependent kinase 4 (P11802 whole entry): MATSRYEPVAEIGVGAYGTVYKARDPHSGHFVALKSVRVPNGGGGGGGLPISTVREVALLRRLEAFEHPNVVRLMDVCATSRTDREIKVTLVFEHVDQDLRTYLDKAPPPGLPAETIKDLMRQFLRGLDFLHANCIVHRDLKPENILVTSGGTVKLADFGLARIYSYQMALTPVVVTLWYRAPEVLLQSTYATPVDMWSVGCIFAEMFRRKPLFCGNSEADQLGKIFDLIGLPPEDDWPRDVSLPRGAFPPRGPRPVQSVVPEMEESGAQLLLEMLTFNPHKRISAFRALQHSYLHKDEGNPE
Chain of von Hippel-Lindau disease tumor suppressor/Cyclin-dependent kinase 4 (P40337 whole entry): as the sequence (P40337 whole entry) above

Cc1ncsc1-c1ccc(CNC(=O)[C@@H]2C[C@@H](O)CN2C(=O)[C@@H](NC(=O)CCCNC(=O)c2ccc(-c3cnc(NCc4ccco4)n4cnnc34)cc2)C(C)(C)C)cc1
EC50 [1]: < 700 nM | Emax (HeLa): > 80%

CCC[C@H](NC(=O)[C@@H]1[C@H]2CCC[C@H]2CN1C(=O)[C@@H](NC(=O)[C@@H](NC(=O)c1cnc(C(=O)NCCOCCOCCNc2cccc3c2C(=O)N(C2CCC(=O)NC2=O)C3=O)cn1)C1CCCCC1)C(C)(C)C)C(=O)C(=O)NC1CC1 (stereo partly specified)
EC50 (Protein cereblon-NS3): 489 nM

CC(=O)c1c(C)c2cnc(Nc3ccc(N4CCN(CCOCCOCCOc5cc(-c6scnc6C)ccc5CNC(=O)[C@H]5C[C@H](O)CN5C(=O)[C@@H](NC(=O)C5(F)CC5)C(C)(C)C)CC4)cn3)nc2n(C2CCCC2)c1=O
EC50 [2]: 5.1 nM | EC50 [3]: 20 nM | Emax [4]: > 95%

Nc1ncnc2c1c(-c1ccc(Oc3ccccc3)cc1)nn2[C@H]1CCCN(C(=O)/C=C/CCCCOCCOCCOCCOCCOc2cccc3c2C(=O)N(C2CCC(=O)NC2=O)C3=O)C1 (stereo partly specified)
EC50 [5]: 10 nM | Emax [6]: 90%

Nc1ncnc2c1c(-c1ccc(Oc3ccccc3)cc1)nn2[C@@H]1CCCN(C(=O)c2cn(CCOCCOCCOCCCc3cccc4c3CN(C3CCC(=O)NC3=O)C4=O)nn2)C1 (stereo partly specified)
EC50 [7]: 29 nM

Nc1ncnc2c1c(-c1ccc(Oc3ccccc3)cc1)nn2[C@H]1CCCN(C(=O)CCCCCCOCCOCCOCCOCCOc2cccc3c2C(=O)N(C2CCC(=O)NC2=O)C3=O)C1 (stereo partly specified)
EC50 [5]: 2.2 nM | Emax [6]: 97%

Cc1ncsc1-c1ccc(CNC(=O)[C@@H]2C[C@@H](O)CN2C(=O)[C@@H](NC(=O)COCCOc2ccc(-c3cc(Nc4ccc(OC(F)(F)F)cc4)ncn3)cc2)C(C)(C)C)cc1
Emax [8]: > 95% | EC50 [9]: 340 nM

Cc1ncsc1-c1ccc(CNC(=O)[C@@H]2C[C@@H](O)CN2C(=O)[C@@H](NC(=O)CCOCCOc2ccc(Nc3ncc(C(F)(F)F)c(NCc4cccc(N(C)S(C)(=O)=O)c4)n3)cc2)C(C)(C)C)cc1
Emax [10]: 99% | EC50 [11]: 3 nM

COc1cc(C(=O)NCCOCCOCCOCCNC(=O)C[C@@H]2N=C(c3ccc(Cl)cc3)c3c(sc(C)c3C)-n3c(C)nnc32)ccc1NC(=O)[C@@H]1N[C@@H](CC(C)(C)C)[C@](C#N)(c2ccc(Cl)cc2F)[C@H]1c1cccc(Cl)c1F
Emax [12]: 98% | EC50 [13]: 32 nM

O=C1CCC(N2C(=O)c3cccc(NCCOCCOCCOCCOCCNC(=O)c4ccc(CN(CC5CCNCC5)S(=O)(=O)c5ccc(S(=O)(=O)N(Cc6ccc(Cl)cc6)C6CCCC6)cc5)cc4)c3C2=O)C(=O)N1 (stereo unspecified)
Emax [14]: 85% | EC50 [15]: 48 nM

CC(C)(/C=C(\C#N)C(=O)N1CCC[C@H](n2nc(-c3ccc(Oc4ccccc4)cc3)c3c(N)ncnc32)C1)CCCOCCOCCOCCOCCOc1cccc2c1C(=O)N(C1CCC(=O)NC1=O)C2=O (stereo partly specified)
EC50 [5]: 10 nM | Emax [6]: 90%
